Reference: US20240101540A1, “TARGETED PROTEIN DEGRADATION OF PARP14 FOR USE IN THERAPY” (Ribon Therapeutics, Inc., priority 2022, published 2024)

These compounds were tested against T1, catalytic domain of human PARP14 (residues 1611 to 1801) with NanoLuc tag (Homo sapiens, UniProt Q460N5) (assay: NanoLuc assay for the degradation of PARP14 (NanoLuc-tagged PARP14 overexpressed in HEK-293T cells, 2 hours)). Details: Assay A (Example A): NanoLuc-tagged PARP14 degradation in HEK-293T cells, read-out: DC50.
T1 construct: expressed in transfected cells; host or cells: HEK-293T cells (ATCC), pcDNA3.1(-) vector
T1 sequence (Q460N5 1611-1801): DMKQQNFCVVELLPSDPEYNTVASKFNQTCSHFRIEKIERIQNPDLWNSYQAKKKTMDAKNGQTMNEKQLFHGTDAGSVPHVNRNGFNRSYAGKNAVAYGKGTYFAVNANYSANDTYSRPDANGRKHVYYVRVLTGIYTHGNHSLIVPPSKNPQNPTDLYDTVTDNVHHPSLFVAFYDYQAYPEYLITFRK
Assay type: cell-based
Method: The insert also contained a NanoLuc tag on the N terminus of the PARP14 protein.
Degradation of PARP14 protein was assessed using measurement of the NanoLuc tag as proxy for the PARP14 protein. […] Plasmid DNA was diluted in empty vector DNA then added to 1.163 mL of phenol red free OptiMEM (Thermo Fisher). Plasmid DNA concentrations used in each assay described in Table 1. The plasmid DNA was mixed with 78.5 μL of Fugene HD (Promega) and allowed to incubate 5 minutes.
The transfection was incubated for 24 hrs at 37 degrees in an incubator supplemented with 5% CO2. The cells were then trypsinized and brought up in phenol red free OptiMEM media. […] 40 nL of a dose response curve diluted in DMSO of each test compound was added to the cell plate using a Mosquito (TTP Labtech) and the plate was incubated at 37° C. for 2 hours. Assay plate was brought to room temperature then 20 μL per well of NanoGlo (Promega) was added to the plate. Luminescence was measured on an Envision (Perkin Elmer).
The average DMSO was calculated from 32 wells containing 0.1% DMSO only in columns 12 and 24 of the assay plate. The % of DMSO values were calculated as described below: […]
The % of DMSO values were plotted as a function of compound concentration and the following 4-parameter fit was applied to derive the DC50 values:
where top, bottom, and Hill Coefficient are allowed to float. Y is the % of DMSO and X is the compound concentration
DC50 data for the Example compounds is provided below in Table 2 (“+” is <0.1 μM; “++” is ≥0.1 μM and <1 μM; and “+++” is ≥1 μM).

| SMILES | DC50 |
| --- | --- |
| O=C1CCC(N2C(=O)c3cccc(OC4CC(CN5CCC(COc6cc(F)c7c(=O)[nH]c(CSC8CCOCC8)nc7c6)CC5)C4)c3C2=O)C(=O)N1 (single isomer, unassigned) [Example 80a, 2-(2,6-dioxopiperidin-3-yl)-4-((1r,3r)-3-((4-(((5-fluoro-4-oxo-2-(((tetrahydro-2H-pyran-4-yl)thio)methyl)-3,4-dihydroquinazolin-7-yl)oxy)methyl)piperidin-1-yl)methyl)cyclobutoxy)isoindoline-1,3-dione] | < 100 nM |
| O=C1CCC(N2C(=O)c3cccc(OC4CC(CN5CCC(COc6cc(F)c7c(=O)[nH]c(CSC8CCOCC8)nc7c6)CC5)C4)c3C2=O)C(=O)N1 (single isomer, unassigned) [Example 80b, 2-(2,6-dioxopiperidin-3-yl)-4-((1s,3s)-3-((4-(((5-fluoro-4-oxo-2-(((tetrahydro-2H-pyran-4-yl)thio)methyl)-3,4-dihydroquinazolin-7-yl)oxy)methyl)piperidin-1-yl)methyl)cyclobutoxy)isoindoline-1,3-dione] | < 100 nM |
| O=C(CN1CCC(COc2cc(F)c3c(=O)[nH]c(CSC4CCOCC4)nc3c2)CC1)NCCCCCCNc1cccc2c1C(=O)N(C1CCC(=O)NC1=O)C2=O (stereo not shown) [Example 1, N-(6-((2-(2,6-dioxopiperidin-3-yl)-1,3-dioxoisoindolin-4-yl)amino)hexyl)-2-(4-(((5-fluoro-4-oxo-2-(((tetrahydro-2H-pyran-4-yl)thio)methyl)-3,4-dihydroquinazolin-7-yl)oxy)methyl)piperidin-1-yl)acetamide] | < 100 nM |
| O=C(CN1CCC(COc2cc(F)c3c(=O)[nH]c(CSC4CCOCC4)nc3c2)CC1)NCCNc1cccc2c1C(=O)N(C1CCC(=O)NC1=O)C2=O (stereo not shown) [Example 2, N-(2-((2-(2,6-dioxopiperidin-3-yl)-1,3-dioxoisoindolin-4-yl)amino)ethyl)-2-(4-(((5-fluoro-4-oxo-2-(((tetrahydro-2H-pyran-4-yl)thio)methyl)-3,4-dihydroquinazolin-7-yl)oxy)methyl)piperidin-1-yl)acetamide] | < 100 nM |
| O=C(CN1CCC(COc2cc(F)c3c(=O)[nH]c(CSC4CCOCC4)nc3c2)CC1)NCCCCCCCCNc1cccc2c1C(=O)N(C1CCC(=O)NC1=O)C2=O (stereo not shown) [Example 3, N-(8-((2-(2,6-dioxopiperidin-3-yl)-1,3-dioxoisoindolin-4-yl)amino)octyl)-2-(4-(((5-fluoro-4-oxo-2-(((tetrahydro-2H-pyran-4-yl)thio)methyl)-3,4-dihydroquinazolin-7-yl)oxy)methyl)piperidin-1-yl)acetamide] | < 100 nM |
| O=C1CCC(N2C(=O)c3cccc(NCCOCCOCCC(=O)N4CCC(COc5cc(F)c6c(=O)[nH]c(CSC7CCOCC7)nc6c5)CC4)c3C2=O)C(=O)N1 (stereo not shown) [Example 4, 2-(2,6-dioxopiperidin-3-yl)-4-((2-(2-(3-(4-(((5-fluoro-4-oxo-2-(((tetrahydro-2H-pyran-4-yl)thio)methyl)-3,4-dihydroquinazolin-7-yl)oxy)methyl)piperidin-1-yl)-3-oxopropoxy)ethoxy)ethyl)amino)isoindoline-1,3-dione] | < 100 nM |
| O=C1CCC(N2C(=O)c3cccc(NCCC(=O)N4CCC(COc5cc(F)c6c(=O)[nH]c(CSC7CCOCC7)nc6c5)CC4)c3C2=O)C(=O)N1 (stereo not shown) [Example 5, 2-(2,6-dioxopiperidin-3-yl)-4-((3-(4-(((5-fluoro-4-oxo-2-(((tetrahydro-2H-pyran-4-yl)thio)methyl)-3,4-dihydroquinazolin-7-yl)oxy)methyl)piperidin-1-yl)-3-oxopropyl)amino)isoindoline-1,3-dione] | < 100 nM |
| O=C1CCC(N2C(=O)c3cccc(NCC(=O)N4CCC(COc5cc(F)c6c(=O)[nH]c(CSC7CCOCC7)nc6c5)CC4)c3C2=O)C(=O)N1 (stereo not shown) [Example 6, 2-(2,6-dioxopiperidin-3-yl)-4-((2-(4-(((5-fluoro-4-oxo-2-(((tetrahydro-2H-pyran-4-yl)thio)methyl)-3,4-dihydroquinazolin-7-yl)oxy)methyl)piperidin-1-yl)-2-oxoethyl)amino)isoindoline-1,3-dione] | < 100 nM |
| O=C(CN1CCC(COc2cc(F)c3c(=O)[nH]c(CSC4CCOCC4)nc3c2)CC1)NCCOCCOCCNc1cccc2c1C(=O)N(C1CCC(=O)NC1=O)C2=O (stereo not shown) [Example 7, N-(2-(2-(2-((2-(2,6-dioxopiperidin-3-yl)-1,3-dioxoisoindolin-4-yl)amino)ethoxy)ethoxy)ethyl)-2-(4-(((5-fluoro-4-oxo-2-(((tetrahydro-2H-pyran-4-yl)thio)methyl)-3,4-dihydroquinazolin-7-yl)oxy)methyl)piperidin-1-yl)acetamide] | < 100 nM |
| O=C(CN1CCC(COc2cc(F)c3c(=O)[nH]c(CSC4CCOCC4)nc3c2)CC1)NCCCCNc1cccc2c1C(=O)N(C1CCC(=O)NC1=O)C2=O (stereo not shown) [Example 8, N-(4-((2-(2,6-dioxopiperidin-3-yl)-1,3-dioxoisoindolin-4-yl)amino)butyl)-2-(4-(((5-fluoro-4-oxo-2-(((tetrahydro-2H-pyran-4-yl)thio)methyl)-3,4-dihydroquinazolin-7-yl)oxy)methyl)piperidin-1-yl)acetamide] | < 100 nM |
| O=C1CCC(N2C(=O)c3cccc(NCCCCCCCCC(=O)N4CCC(COc5cc(F)c6c(=O)[nH]c(CSC7CCOCC7)nc6c5)CC4)c3C2=O)C(=O)N1 (stereo not shown) [Example 9, 2-(2,6-dioxopiperidin-3-yl)-4-((9-(4-(((5-fluoro-4-oxo-2-(((tetrahydro-2H-pyran-4-yl)thio)methyl)-3,4-dihydroquinazolin-7-yl)oxy)methyl)piperidin-1-yl)-9-oxononyl)amino)isoindoline-1,3-dione] | < 100 nM |
| O=C1CCC(N2C(=O)c3cccc(NCCCOCCC(=O)N4CCC(COc5cc(F)c6c(=O)[nH]c(CSC7CCOCC7)nc6c5)CC4)c3C2=O)C(=O)N1 (stereo not shown) [Example 10, 2-(2,6-dioxopiperidin-3-yl)-4-((3-(3-(4-(((5-fluoro-4-oxo-2-(((tetrahydro-2H-pyran-4-yl)thio)methyl)-3,4-dihydroquinazolin-7-yl)oxy)methyl)piperidin-1-yl)-3-oxopropoxy)propyl)amino)isoindoline-1,3-dione] | < 100 nM |
| O=C1CCC(N2C(=O)c3cccc(NCCCCCCC(=O)N4CCC(COc5cc(F)c6c(=O)[nH]c(CSC7CCOCC7)nc6c5)CC4)c3C2=O)C(=O)N1 (stereo not shown) [Example 11, 2-(2,6-dioxopiperidin-3-yl)-4-((7-(4-(((5-fluoro-4-oxo-2-(((tetrahydro-2H-pyran-4-yl)thio)methyl)-3,4-dihydroquinazolin-7-yl)oxy)methyl)piperidin-1-yl)-7-oxoheptyl)amino)isoindoline-1,3-dione] | < 100 nM |
| O=C1CCC(N2C(=O)c3cccc(NCCCCC(=O)N4CCC(COc5cc(F)c6c(=O)[nH]c(CSC7CCOCC7)nc6c5)CC4)c3C2=O)C(=O)N1 (stereo not shown) [Example 12, 2-(2,6-dioxopiperidin-3-yl)-4-((5-(4-(((5-fluoro-4-oxo-2-(((tetrahydro-2H-pyran-4-yl)thio)methyl)-3,4-dihydroquinazolin-7-yl)oxy)methyl)piperidin-1-yl)-5-oxopentyl)amino)isoindoline-1,3-dione] | < 100 nM |

The next lines start with the values.

| DC50 | SMILES |
| --- | --- |
| < 100 nM | O=C1CC[C@H](Nc2ccc(N3CCN(CCN4CCC(COc5cc(F)c6c(=O)[nH]c(CSC7CCOCC7)nc6c5)CC4)CC3)cc2)C(=O)N1 (single isomer, unassigned) [Example 48a] |
| < 100 nM | O=C1CC[C@@H](Nc2ccc(N3CCN(CCN4CCC(COc5cc(F)c6c(=O)[nH]c(CSC7CCOCC7)nc6c5)CC4)CC3)cc2)C(=O)N1 (single isomer, unassigned) [Example 48b] |
